{"source": "patent US20080255206A1", "about": "“Rxr Agonists and Antagonists, Alone or in Combination with Ppar Ligands, in the Treatment of Metabolic and Cardiovascular Diseases” (priority 2005, published 2008)", "key": {"[1]": {"experiment": "Pharmacokinetics, daily oral gavage for 14 days in mice", "settings": "mouse, in vivo; for AUC / Cmax: oral", "procedure": "Daily administration of compound 15 by oral gavage for 14 days in mice: Compound 15 is administered daily by oral gavage as a microsuspension in oil in doses of 30 to 400 mg/kg/day for 14 days in mice."}, "[2]": {"experiment": "Pharmacokinetics, daily oral gavage for 4 weeks in rats", "format": "in vivo", "procedure": "Daily administration of compound 15 by oral gavage for 4 weeks in rats: Compound 15 is administered daily by oral gavage as an oily suspension in doses of 50, 250, 500 and 750 mg/kg/day for 4 weeks in rats. Plasma samples are taken 2 hours post dosing on days 1, 22 and 26 and analysed by a gradient HPLC method with UV detection. […] With the 250 mg/kg/day dosage, plasma levels change from 4945 ng/ml on day 1 to 4190 ng/ml on day 22 and to 4530 ng/ml on day 26. Exposure of the rats to compound 15 results in a dose-proportional way in the doses between 50 and 250 mg/kg/day."}, "normal mice": {"system": "normal mice", "experiment": "2-weeks toxicity study in normal mice, intraperitoneal", "settings": "daily i.p."}, "[3]": {"system": "skin inflammation induced by Candidin or UV-B", "experiment": "Clinical phase I trial, skin inflammation induced by candidin or UV-B irradiation", "format": "in vivo, human", "procedure": "Four healthy volunteers participate. Inclusion criteria are: Age above 18 years, male or female. They are informed, with written letter of consent. Exclusion criteria are: Preexistant dermatological diseases, known allergy to test agents.\nInflammation inducing agents: Candidin is administered intradermally (see also D. Poffet, Comparaison entre le pouvoir vaso-constricteur d'un corticoide topique et l'inhibition de la dermite à la candidine après intradermorèaction (IDR). Thèse, Universitè de Genève, 1984). UV-B rays are administered by a UV-B lamp.\nInflammation is measured quantitatively. The area of the inflamed skin is measured in cm^2. The thickness of the skin is monitored by Ultrasound at 20 MHz. Erythema is measured by colorimetric determination employing a Minolta CR 20. […]\nAll determinations are recorded on a scale from 0 to 4: • 0=no reduction • 1=slight reduction (10 to 20%) • 2=moderate reduction (21 to 40%) • 3=marked reduction (41 to 70%) • 4=very marked reduction (71 to 100%) • Compared to vehicle control."}, "normal skin of mice": {"system": "normal skin of mice", "experiment": "Effect on normal, non-inflamed skin of mice", "format": "in vivo, C57BL/6 mice", "procedure": "The effect of the RXR antagonist compound 15 on normal skin of mice is investigated. The ears of C57BL/6 mice are treated epicutaneously (topically) for 4 consecutive days with compound 15 in a concentration of 0.05% and 2.5% in acetone/ethanol (1:1, v/v). Comparison with vehicle control. Skin reactions, in particular inflammation, erythema, desquamation, and edema, are observed daily. Myeloperoxidase (MPO) activity is determined. The activity of MPO is considered the most sensitive criterium for the assessment of inflammation of the skin (see above, Examples 6 and 7)."}, "rats": {"system": "rats", "experiment": "4-weeks toxicology study in rats, oral gavage", "format": "in vivo", "from_the_text": "[…]. […] This symptom of hair loss is observed, dose-dependently, with all doses. Clinical pathology is limited to minor disturbances."}, "c-Jun mRNA expression": {"system": "c-Jun mRNA expression", "experiment": "Semi chronic inflammation of mouse ears, c-Jun mRNA (northern blot)", "format": "in vivo, C57BL/6 mice", "settings": "TPA 0.005% + test compound 0.05%", "procedure": "[…] mice of the C57BL/6 strain are used. Inflammation is induced on mouse ears with either AtRA, 9-cis RA or TPA by topical application. Inflammation is measured objectively by determination of the activity of myeloperoxidase (MPO) being directly correlated to the infiltration of polymorphonuclear white blood cells and by the determination of mRNA expression of c-jun, a protein implicated in the AP-1 transduction pathway according to known methods, see e.g. P. L. Stanley et al., Skin Pharmacol. 4, 262-271 (1991) (MPO assay), N. Basset-Sequin et al., J. Invest. Dermatol. 94, 418-422 (1990), F. J. Rauscher et al., Cell 52, 471-480 […], P. Sassone-Corn et al., Nature 326, 507-510 (1987), and M. Pfahl, Endocr. Rev. 14, 651-658, 1993, which are incorporated by reference regarding the experimental method.\nThe anti-inflammatory effect of topical RXR antagonists is tested by determination of myeloperoxidase activity in % of vehicle controls. The effect of the RXR antagonist compound 15 is also compared with the well known anti-inflammatory effect of the two corticosteroids, clobetasol dipropionate and betamethasone propionate. For induction of inflammation, AtRA and TPA are applied topically to the skin and the administration of the test compounds, the RXR antagonist compound 15 and the two corticosteroids are given in the following order, according to the schedule, described in: Skin Pharmacol 1991; 4 (4): 262-271, Stanley P L. et.al.: RA or TPA is administered on days 0, 2, 4, 7 and 9, compound 15 or corticosteroids are administered twice daily on day 7, day 8 and day 9 and once on day 10 in the morning. The mice are sacrificed on day 10 in the afternoon.\nIn the same experiment, the expression of c-Jun mRNA is determined by northern blot and expressed in percent of the vehicle controls."}}}
{"smiles": "CCCCOc1c(\\C(C)=C/C=C/C(C)=C/C(=O)O)cc(C(C)(C)C)cc1C(C)(C)C", "note": "[Compound 15, (2E,4E,6Z)-7-[2-butoxy-3,5-bis(1,1-dimethylethyl)phenyl]-3-methyl-2,4,6-octatrienoic acid]", "values": [{"measurement": "AUC", "setting": "[1]; 30 mg/kg", "result": 13200, "unit": "ng·h/mL"}, {"measurement": "Cmax", "setting": "[1]; 30 mg/kg", "result": 4440, "unit": "ng/mL"}, {"measurement": "AUC", "setting": "[1]; 100 mg/kg", "result": 25700, "unit": "ng·h/mL"}, {"measurement": "Cmax", "setting": "[1]; 100 mg/kg", "result": 8920, "unit": "ng/mL"}, {"measurement": "Tmax", "setting": "[1]; oral gavage 30 to 400 mg/kg/day, 14 days", "result": "0.5 to 2", "unit": "h"}, {"measurement": "Plasma level 2 hours post dosing", "setting": "[2]; 50 mg/kg/day, day 1", "result": 2205, "unit": "ng/mL"}, {"measurement": "Plasma level 2 hours post dosing", "setting": "[2]; 50 mg/kg/day, day 22", "result": 2235, "unit": "ng/mL"}, {"measurement": "Plasma level 2 hours post dosing", "setting": "[2]; 50 mg/kg/day, day 26", "result": 2505, "unit": "ng/mL"}, {"measurement": "Plasma level 2 hours post dosing", "setting": "[2]; 250 mg/kg/day, day 1", "result": 4945, "unit": "ng/mL"}, {"measurement": "Plasma level 2 hours post dosing", "setting": "[2]; 250 mg/kg/day, day 22", "result": 4190, "unit": "ng/mL"}, {"measurement": "Plasma level 2 hours post dosing", "setting": "[2]; 250 mg/kg/day, day 26", "result": 4530, "unit": "ng/mL"}, {"measurement": "Signs or symptoms of hypervitaminosis A", "setting": "normal mice", "result": "no signs or symptoms of hypervitaminosis A on skin, mucous membranes or bones with the exception of hair loss"}, {"measurement": "Tolerability, intraperitoneal", "setting": "normal mice; doses up to 400 mg/kg", "result": "well tolerated"}, {"measurement": "Reduction of the inflammatory reaction compared to vehicle control", "setting": "[3]; 4 healthy volunteers, topical, candidin or UV-B induced", "result": "very marked"}, {"measurement": "Anti-inflammatory effect compared with corticosteroids or macrolides", "setting": "[3]; topical lotion 1%", "result": "even superior to that of corticosteroids or macrolides"}, {"measurement": "Clinical signs or symptoms of skin inflammation on normal skin", "setting": "normal skin of mice; epicutaneous 0.05% and 2.5%, 4 consecutive days", "result": "does not induce clinical signs or symptoms of a skin inflammation"}, {"measurement": "MPO activity compared to the vehicle control (in words)", "setting": "normal skin of mice; normal skin, 0.05%", "result": "no significant change"}, {"measurement": "MPO activity, % of that of the vehicle control", "setting": "normal skin of mice; normal skin, 2.5%", "result": 57, "unit": "%"}, {"measurement": "Haematology and clinical chemistry", "setting": "rats; 4 weeks oral gavage", "result": "No abnormalities in haematology, no abnormalities in clinical chemistry"}, {"measurement": "Histopathology", "setting": "rats; 4 weeks oral gavage", "result": "only some changes in the 500/750 mg/kg dose group"}, {"measurement": "Transaminases, triglycerides and cholesterol", "setting": "rats; 4 weeks oral gavage", "result": "No increase in transaminases, triglycerides, and cholesterol"}, {"measurement": "Tolerability, oral", "setting": "rats; daily doses of 50, 250, 500, eventually 750 mg/kg, 4 weeks", "result": "well tolerated with the exception of patchy alopecia"}, {"measurement": "c-Jun mRNA expression (% of vehicle treated mice)", "setting": "c-Jun mRNA expression", "result": "88 % of vehicle treated mice"}]}
